Laboratory results published in the NIST ThermoML archive (doi:10.1016/j.jct.2019.04.023).
Numbers after ± are expanded uncertainties.

What was measured:
[1] = xn = mol fraction of the nth substance listed; conditions: 101 kPa, Liquid, x2 = 0; for viscosity: Falling or rolling sphere viscometry; for mass density: Vibrating tube method
[2] = 101 kPa, Liquid; for viscosity: Falling or rolling sphere viscometry; for mass density: Vibrating tube method

CO [methanol] + CC[N+](CC)=C(N(C)C)N(C)C.O=S(=O)([N-]S(=O)(=O)C(F)(F)F)C(F)(F)F
[1]
Conditions | mass density [kg/m3] | viscosity [mPa·s]
293.15 K | 791.3 ± 1.6 | 0.584 ± 0.024
298.15 K | 786.6 ± 1.6 | 0.552 ± 0.022
303.15 K | 781.87 ± 1.6 | 0.524 ± 0.021
308.15 K | 777.12 ± 1.6 | 0.49 ± 0.02
313.15 K | 772.34 ± 1.6 | 0.459 ± 0.019
318.15 K | 767.52 ± 1.5 | 0.439 ± 0.018
323.15 K | 762.67 ± 1.5 | 0.417 ± 0.017

CCO [ethanol]
[2]
Conditions | mass density [kg/m3] | viscosity [mPa·s]
293.15 K | 789.53 ± 1.6 | 1.177 ± 0.048
298.15 K | 785.25 ± 1.6 | 1.074 ± 0.044
303.15 K | 780.93 ± 1.6 | 0.977 ± 0.04
308.15 K | 776.58 ± 1.6 | 0.888 ± 0.036
313.15 K | 772.19 ± 1.6 | 0.819 ± 0.033
318.15 K | 767.75 ± 1.5 | 0.753 ± 0.031
323.15 K | 763.27 ± 1.5 | 0.697 ± 0.028

CC[N+](CC)=C(N(C)C)N(C)C.O=S(=O)([N-]S(=O)(=O)C(F)(F)F)C(F)(F)F
[2]
Conditions | mass density [kg/m3] | viscosity [mPa·s]
293.15 K | 1377.86 ± 2.8 | 81.02 ± 3.5
298.15 K | 1373.16 ± 2.8 | 65.01 ± 2.7
303.15 K | 1368.51 ± 2.8 | 52.96 ± 2.1
308.15 K | 1363.9 ± 2.8 | 43.84 ± 1.8
313.15 K | 1359.32 ± 2.8 | 36.79 ± 1.5
318.15 K | 1354.76 ± 2.8 | 31.25 ± 1.3
323.15 K | 1350.21 ± 2.7 | 26.79 ± 1.1

CCO [ethanol] + CC[N+](CC)=C(N(C)C)N(C)C.O=S(=O)([N-]S(=O)(=O)C(F)(F)F)C(F)(F)F
[1]
Conditions | mass density [kg/m3] | viscosity [mPa·s]
293.15 K | 789.53 ± 1.6 | 1.177 ± 0.048
298.15 K | 785.25 ± 1.6 | 1.074 ± 0.044
303.15 K | 780.93 ± 1.6 | 0.977 ± 0.04
308.15 K | 776.58 ± 1.6 | 0.888 ± 0.036
313.15 K | 772.19 ± 1.6 | 0.819 ± 0.033
318.15 K | 767.75 ± 1.5 | 0.753 ± 0.031
323.15 K | 763.27 ± 1.5 | 0.697 ± 0.028

CO [methanol]
[2]
Conditions | mass density [kg/m3] | viscosity [mPa·s]
293.15 K | 791.3 ± 1.6 | 0.584 ± 0.024
298.15 K | 786.6 ± 1.6 | 0.552 ± 0.022
303.15 K | 781.87 ± 1.6 | 0.524 ± 0.021
308.15 K | 777.12 ± 1.6 | 0.49 ± 0.02
313.15 K | 772.34 ± 1.6 | 0.459 ± 0.019
318.15 K | 767.52 ± 1.5 | 0.439 ± 0.018
323.15 K | 762.67 ± 1.5 | 0.417 ± 0.017
